CC(C)c1nc(N(C)S(C)(=O)=O)nc(-c2ccc(F)cc2)c1/C=C/[C@@H](O)C[C@@H](O)CC(=O)[O-].CC(C)c1nc(N(C)S(C)(=O)=O)nc(-c2ccc(F)cc2)c1/C=C/[C@@H](O)C[C@@H](O)CC(=O)[O-].[Ca+2]
solubility (mole fraction)
Settings	in ethanol	in ethylene glycol	in isopropanol	in n-butanol	in propylene glycol	in sec-butanol	in water
298.15 K	0.000337	0.000255	0.000304	0.000429	0.0156	7.17e-05	5.4e-06
303.15 K	0.000392	0.000311	0.000366	0.000511	0.0164	8e-05	7.02e-06
308.15 K	0.000469	0.000374	0.000432	0.000614	0.0173	8.96e-05	9e-06
313.15 K	0.00057	0.00044	0.000499	0.00071	0.0181	9.92e-05	1.13e-05
318.15 K	0.000681	0.000503	0.000566	0.00082	0.0189	0.000108	1.4e-05
